The record followed here is patent publication US7759071B2, “Determination of apoptotic products in tumor patients undergoing therapy” (Roche Diagnostics, priority 1998, dated 2010).

Experiment [1] deals with metastasising pancreatic carcinoma. The experiment in a line: Clinical course of the patient during chemotherapy. It counts as in vivo. The note with it: one patient, FIG. 9. The source says: The effectiveness of tumour therapy can be determined by means of the remission rate on the basis of image generating processes (X-ray, computer tomography). By definition a complete remission is understood as the complete disappearance of the tumour for at least eight weeks and partial remission means a regression of the tumour manifestations by more than 50% with regard to their volume; no change reflects the state between a 50% decrease and a 25% increase of the tumour mass; progression denotes a progression of more than 25% (UICC criteria).

The test system is the same in experiment [2]. The experiment in a line: Nucleosome concentration in serum (Cell Death Detection plus ELISA) of a patient during chemotherapy. The format is in vivo. As to conditions: one patient, FIG. 9; for nucleosome concentration in the serum after start of new therapy scheme: combination folic acid 300 mg/m^2 and 5-fluorouracil 500 mg/m^2 on each of days 1 to 5, only a partial decrease afterwards; for nucleosome concentration in the serum at the beginning of a cycle: combination Gemcitabine 1000 mg/m^2 (day 1, 8, 15) and Cisplatin 50 mg/m^2 (day 1, 15), then decreased slowly. As for the experimental part:
The Cell Death Detection^plus ELISA (Boehringer Mannheim, Cat. No. 1 774 425) is based on the quantitative sandwich enzyme immunoassay principle. Two monoclonal mouse antibodies are used which are directed against DNA and histones. The test can be carried out with cytoplasmic lysates, culture supernatants, plasma, serum and other body fluids and allows a specific detection of mononucleosomes and oligonucleosomes. The description given here applies to measurements in liquid media:
A 20 μl aliquot of the material to be tested is pipetted into a well of a streptavidin-coated microtitre plate (MTP). 80 μl of an immunoreagent composed of biotinylated anti-histone antibodies, peroxidase-labelled anti-DNA antibodies and incubation buffer (1% BSA, 0.5% Tween, 1 mM EDTA in PBS) is added, covered with an adhesive foil and incubated for 2 hours on a MTP shaker (500 rpm). During this incubation period the anti-histone antibody reacts with the histone component of the nucleosomes and immobilizes the complex via the biotin on the streptavidin-coated microtitre plate. In addition the anti-DNA antibody binds to the DNA component of the nucleosomes. In this process ds as well as ss DNA is recognized. After removing the antibody that is still unbound by washing three times with 300-400 μl incubation buffer in each case, the immobilized complexes are incubated with 100 μl ABTS (2,2′-azino-di(3-ethyl-benzthiazoline sulfonate), the MTP is sealed with an adhesive foil and shaken at 250 rpm. The substrate reacts with the peroxidase label of the anti-DNA antibody and causes a colour change that is proportional to these antibodies. After an adequate colour development period it is photometrically quantified at d=405 nm against the substrate solution as a blank (reference wavelength d=492 nm).
Therefore absolute concentration data are not used and a scale of so-called AUs (arbitrary units) is introduced. 1000 AU equates with the highest standard level (2500 mA after 30 min); the scale is linear. This therefore takes into account the lack of knowledge about the ratio of mononucleosomes to oligonucleosomes and the resulting variability concerning the amount of binding sites of the antibodies while at the same time increasing the comparability between the tests.
After thawing attention must be paid to adjustment to room temperature and careful homogenization of the sample material. The serum samples are diluted 1:4 with incubation buffer (20 μl serum, 60 μl incubation buffer) and subsequently used in the test.
The nucleosome content was measured in patients under chemotherapy before therapy and on the second and fourth day and one week after administration of the first dose and in addition weekly or before the start of the next treatment cycle.
On the technique in general: In an ELISA, binding on a coated surface is turned into a signal by an enzyme label.

Setting [3] is: combination folic acid and 5-fluorouracil, continuous increase of CEA.
[4] abbreviates: combination Gemcitabine and Cisplatin.

For `O=c1[nH]cc(F)c(=O)[nH]1` [5-fluorouracil], the “clinical course under therapy” value in experiment [1] (setting [3]) is “progressive course”. Besides, in experiment [2], the “nucleosome concentration in the serum after start of new therapy scheme” value is recorded as “rapid increase”.

On to `N.N.[Cl][Pt][Cl]` [Cisplatin], for which, in experiment [1] (setting [4]), the “clinical course under therapy” value is given as “clinical progressive deterioration”. In addition, the “nucleosome concentration in the serum at the beginning of a cycle” value in experiment [2] is reported as “increased rapidly”.

As to `Nc1ccn([C@@H]2O[C@H](CO)[C@@H](O)C2(F)F)c(=O)n1` [Gemcitabine], the “clinical course under therapy” value in experiment [1] (setting [4]) is “clinical progressive deterioration”. The “nucleosome concentration in the serum at the beginning of a cycle” value in experiment [2] is given as “increased rapidly”.

On to `Nc1nc2ncc(CNc3ccc(C(=O)N[C@@H](CCC(=O)O)C(=O)O)cc3)nc2c(=O)[nH]1` [folic acid], for which the “clinical course under therapy” value in experiment [1] (setting [3]) is “progressive course”. In experiment [2], the “nucleosome concentration in the serum after start of new therapy scheme” value was “rapid increase”.
